From patent US7407958B2, “2-pyridyl substituted imidazoles as ALK5 and/or ALK4 inhibitors” (SK Chemicals Co., Ltd., priority 2004, dated 2008)

Experiments:
Ca^2+/Calmodulin-Dep. II = assay: Protein kinase activity in vitro; format: biochemical
Cdk1/Cyclin B = Cdk1/Cyclin B (Homo sapiens, UniProt P06493); assay: Protein kinase activity in vitro; format: biochemical
Cdk2/Cyclin A = Cdk2/Cyclin A (Homo sapiens, UniProt P24941); assay: Protein kinase activity in vitro; format: biochemical
Cdk5/p35 = Cdk5/p35 (Homo sapiens, UniProt Q00535); assay: Protein kinase activity in vitro; format: biochemical
CHK1 = CHK1 (Homo sapiens, UniProt O14757); assay: Protein kinase activity in vitro; format: biochemical
CHK2 = CHK2 (Homo sapiens, UniProt O96017); assay: Protein kinase activity in vitro; format: biochemical
EGF Receptor = EGF Receptor (Homo sapiens, UniProt P00533); assay: Protein kinase activity in vitro; format: biochemical
ERK1 = ERK1 (Homo sapiens, UniProt P27361); assay: Protein kinase activity in vitro; format: biochemical
GSK-3β = GSK-3β (Homo sapiens, UniProt P49841); assay: Protein kinase activity in vitro; format: biochemical
HER2 receptor = HER2 receptor (Homo sapiens, UniProt P04626); assay: Protein kinase activity in vitro; format: biochemical
IKK-1 = IKK-1 (Homo sapiens, UniProt O15111); assay: Protein kinase activity in vitro; format: biochemical
IKK-2 = IKK-2 (Homo sapiens, UniProt O14920); assay: Protein kinase activity in vitro; format: biochemical
Insulin receptor = Insulin receptor (Homo sapiens, UniProt P06213); assay: Protein kinase activity in vitro; format: biochemical
JNK1α1 = JNK1α1 (Homo sapiens, UniProt P45983); assay: Protein kinase activity in vitro; format: biochemical
JNK2α2 = JNK2α2 (Homo sapiens, UniProt P45984); assay: Protein kinase activity in vitro; format: biochemical
Chain of JNK2α2 (P45984 whole entry): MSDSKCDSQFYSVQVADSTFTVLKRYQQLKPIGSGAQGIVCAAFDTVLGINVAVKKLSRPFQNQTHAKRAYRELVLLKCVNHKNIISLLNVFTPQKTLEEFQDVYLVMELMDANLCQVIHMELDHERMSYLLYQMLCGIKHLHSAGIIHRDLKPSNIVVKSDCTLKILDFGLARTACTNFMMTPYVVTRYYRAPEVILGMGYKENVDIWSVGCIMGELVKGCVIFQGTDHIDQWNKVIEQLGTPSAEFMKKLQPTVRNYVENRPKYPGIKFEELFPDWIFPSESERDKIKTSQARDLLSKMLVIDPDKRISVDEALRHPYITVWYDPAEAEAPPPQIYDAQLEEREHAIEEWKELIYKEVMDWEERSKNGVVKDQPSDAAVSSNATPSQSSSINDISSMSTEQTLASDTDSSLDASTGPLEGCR

Lck = Lck (Homo sapiens, UniProt P06239); assay: Protein kinase activity in vitro; format: biochemical
Lyn A = Lyn A (Homo sapiens, UniProt P07948); assay: Protein kinase activity in vitro; format: biochemical; conditions: 10 μM (two lines printed)
Chain of Lyn A (P07948 whole entry, species assumed): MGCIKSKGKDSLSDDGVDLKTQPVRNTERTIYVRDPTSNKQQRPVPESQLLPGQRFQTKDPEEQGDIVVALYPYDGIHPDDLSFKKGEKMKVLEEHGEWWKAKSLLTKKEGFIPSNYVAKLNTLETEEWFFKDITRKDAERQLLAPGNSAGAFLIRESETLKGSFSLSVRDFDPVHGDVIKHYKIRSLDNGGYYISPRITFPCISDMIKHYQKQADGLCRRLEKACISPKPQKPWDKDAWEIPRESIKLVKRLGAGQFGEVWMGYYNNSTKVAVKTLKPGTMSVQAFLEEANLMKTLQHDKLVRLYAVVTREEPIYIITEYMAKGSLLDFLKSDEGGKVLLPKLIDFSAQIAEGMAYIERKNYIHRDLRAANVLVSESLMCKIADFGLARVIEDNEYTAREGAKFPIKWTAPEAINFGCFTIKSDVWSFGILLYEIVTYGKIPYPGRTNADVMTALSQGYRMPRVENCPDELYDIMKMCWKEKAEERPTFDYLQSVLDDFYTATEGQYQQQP

MEK1 = MEK1 (Homo sapiens, UniProt Q02750); assay: Protein kinase activity in vitro; format: biochemical
Chain of MEK1 (Q02750 whole entry, species assumed): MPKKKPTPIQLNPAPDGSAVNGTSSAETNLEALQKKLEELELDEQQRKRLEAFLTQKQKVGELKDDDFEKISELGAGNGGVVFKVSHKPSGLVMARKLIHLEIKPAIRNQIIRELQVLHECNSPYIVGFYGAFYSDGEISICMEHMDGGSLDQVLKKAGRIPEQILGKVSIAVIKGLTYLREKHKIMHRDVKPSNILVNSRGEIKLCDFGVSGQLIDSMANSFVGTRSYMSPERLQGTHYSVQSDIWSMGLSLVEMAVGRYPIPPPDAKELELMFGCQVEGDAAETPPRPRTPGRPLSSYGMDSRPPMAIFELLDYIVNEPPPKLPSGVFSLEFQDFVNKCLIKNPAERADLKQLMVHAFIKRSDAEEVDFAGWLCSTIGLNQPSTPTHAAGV

p38α = p38α (Homo sapiens, UniProt Q16539); assay: Protein kinase activity in vitro; format: biochemical
Chain of p38α (Q16539 whole entry): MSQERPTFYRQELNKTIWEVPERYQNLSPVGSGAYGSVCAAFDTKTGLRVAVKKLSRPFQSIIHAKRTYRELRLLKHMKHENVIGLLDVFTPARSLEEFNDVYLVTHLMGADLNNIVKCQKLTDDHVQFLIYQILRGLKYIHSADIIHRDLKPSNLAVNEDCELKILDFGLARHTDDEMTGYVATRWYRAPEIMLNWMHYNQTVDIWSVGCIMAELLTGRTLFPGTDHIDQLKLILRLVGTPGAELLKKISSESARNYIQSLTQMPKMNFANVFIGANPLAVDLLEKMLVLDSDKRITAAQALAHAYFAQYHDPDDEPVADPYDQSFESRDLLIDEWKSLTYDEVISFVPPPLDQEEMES

p38β = p38β (Homo sapiens, UniProt Q15759); assay: Protein kinase activity in vitro; format: biochemical
p38δ = p38δ (Homo sapiens, UniProt O15264); assay: Protein kinase activity in vitro; format: biochemical
Chain of p38δ (O15264 whole entry): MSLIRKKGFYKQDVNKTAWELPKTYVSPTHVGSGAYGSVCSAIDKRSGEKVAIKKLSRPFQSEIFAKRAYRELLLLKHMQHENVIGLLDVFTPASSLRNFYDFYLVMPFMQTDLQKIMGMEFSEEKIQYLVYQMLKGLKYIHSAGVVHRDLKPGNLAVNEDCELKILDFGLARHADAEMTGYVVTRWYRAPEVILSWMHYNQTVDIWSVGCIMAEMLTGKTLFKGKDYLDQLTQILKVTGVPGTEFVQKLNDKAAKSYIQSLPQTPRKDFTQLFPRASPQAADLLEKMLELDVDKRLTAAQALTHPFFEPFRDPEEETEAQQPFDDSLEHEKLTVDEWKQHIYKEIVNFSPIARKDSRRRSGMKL

p38γ = p38γ (Homo sapiens, UniProt P53778); assay: Protein kinase activity in vitro; format: biochemical
p70^56k = p70^56k (Homo sapiens, UniProt P23443); assay: Protein kinase activity in vitro; format: biochemical
PDK1 = PDK1 (Homo sapiens, UniProt O15530); assay: Protein kinase activity in vitro; format: biochemical
PKA, non-selective = assay: Protein kinase activity in vitro; format: biochemical
PKBα/Akt1 = PKBα/Akt1 (Homo sapiens, UniProt P31749); assay: Protein kinase activity in vitro; format: biochemical
PKCα = PKCα (Homo sapiens, UniProt P17252); assay: Protein kinase activity in vitro; format: biochemical
PKCβ1 = PKCβ1 (Homo sapiens, UniProt P05771); assay: Protein kinase activity in vitro; format: biochemical
Chain of PKCβ1 (P05771 whole entry): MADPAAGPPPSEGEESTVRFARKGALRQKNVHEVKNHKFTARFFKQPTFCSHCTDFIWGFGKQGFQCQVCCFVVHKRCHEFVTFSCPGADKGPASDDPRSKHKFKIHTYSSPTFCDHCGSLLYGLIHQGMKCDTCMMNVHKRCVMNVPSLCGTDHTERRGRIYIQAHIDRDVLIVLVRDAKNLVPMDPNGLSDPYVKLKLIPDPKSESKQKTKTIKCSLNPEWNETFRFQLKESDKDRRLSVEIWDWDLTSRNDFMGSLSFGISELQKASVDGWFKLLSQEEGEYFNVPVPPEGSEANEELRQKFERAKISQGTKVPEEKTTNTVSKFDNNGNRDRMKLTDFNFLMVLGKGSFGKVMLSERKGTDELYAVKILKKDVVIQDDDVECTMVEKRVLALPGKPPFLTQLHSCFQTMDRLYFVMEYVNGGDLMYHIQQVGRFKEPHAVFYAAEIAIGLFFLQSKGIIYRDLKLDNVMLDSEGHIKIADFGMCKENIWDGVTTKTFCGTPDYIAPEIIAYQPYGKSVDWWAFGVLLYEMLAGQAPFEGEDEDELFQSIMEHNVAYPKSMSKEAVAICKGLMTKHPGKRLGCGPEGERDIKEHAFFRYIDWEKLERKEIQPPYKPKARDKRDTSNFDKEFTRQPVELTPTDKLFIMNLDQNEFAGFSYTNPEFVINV

PKCβ2 = PKCβ2 (Homo sapiens, UniProt P05771); assay: Protein kinase activity in vitro; format: biochemical
PKCδ = PKCδ (Homo sapiens, UniProt Q05655); assay: Protein kinase activity in vitro; format: biochemical
PKCε = PKCε (Homo sapiens, UniProt Q02156); assay: Protein kinase activity in vitro; format: biochemical
PKCγ = PKCγ (Homo sapiens, UniProt P05129); assay: Protein kinase activity in vitro; format: biochemical
PKCη = PKCη (Homo sapiens, UniProt P24723); assay: Protein kinase activity in vitro; format: biochemical
PKCμ = PKCμ (Homo sapiens, UniProt Q15139); assay: Protein kinase activity in vitro; format: biochemical
Chain of PKCμ (Q15139 whole entry): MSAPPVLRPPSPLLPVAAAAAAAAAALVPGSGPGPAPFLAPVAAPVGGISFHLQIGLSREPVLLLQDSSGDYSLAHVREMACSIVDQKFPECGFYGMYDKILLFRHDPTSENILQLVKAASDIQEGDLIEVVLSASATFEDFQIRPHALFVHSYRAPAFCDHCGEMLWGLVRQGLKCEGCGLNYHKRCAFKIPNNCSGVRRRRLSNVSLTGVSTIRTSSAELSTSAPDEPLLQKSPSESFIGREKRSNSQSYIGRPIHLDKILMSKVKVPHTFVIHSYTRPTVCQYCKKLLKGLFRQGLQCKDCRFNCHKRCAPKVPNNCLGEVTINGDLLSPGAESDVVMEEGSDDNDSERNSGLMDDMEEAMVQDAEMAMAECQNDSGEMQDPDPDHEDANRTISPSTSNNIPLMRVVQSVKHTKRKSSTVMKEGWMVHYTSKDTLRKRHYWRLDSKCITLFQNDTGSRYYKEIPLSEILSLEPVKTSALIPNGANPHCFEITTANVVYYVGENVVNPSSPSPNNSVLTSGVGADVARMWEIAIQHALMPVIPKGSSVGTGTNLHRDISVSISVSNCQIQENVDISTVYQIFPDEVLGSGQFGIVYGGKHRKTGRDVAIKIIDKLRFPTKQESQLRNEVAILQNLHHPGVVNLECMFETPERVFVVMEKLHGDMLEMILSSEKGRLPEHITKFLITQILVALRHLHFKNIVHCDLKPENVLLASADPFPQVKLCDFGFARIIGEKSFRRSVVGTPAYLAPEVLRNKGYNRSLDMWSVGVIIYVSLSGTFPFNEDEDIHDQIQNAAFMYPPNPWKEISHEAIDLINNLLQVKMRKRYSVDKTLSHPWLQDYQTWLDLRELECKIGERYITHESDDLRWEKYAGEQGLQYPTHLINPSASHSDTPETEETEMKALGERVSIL

PKCζ = PKCζ (Homo sapiens, UniProt Q05513); assay: Protein kinase activity in vitro; format: biochemical
Chain of PKCζ (Q05513 whole entry): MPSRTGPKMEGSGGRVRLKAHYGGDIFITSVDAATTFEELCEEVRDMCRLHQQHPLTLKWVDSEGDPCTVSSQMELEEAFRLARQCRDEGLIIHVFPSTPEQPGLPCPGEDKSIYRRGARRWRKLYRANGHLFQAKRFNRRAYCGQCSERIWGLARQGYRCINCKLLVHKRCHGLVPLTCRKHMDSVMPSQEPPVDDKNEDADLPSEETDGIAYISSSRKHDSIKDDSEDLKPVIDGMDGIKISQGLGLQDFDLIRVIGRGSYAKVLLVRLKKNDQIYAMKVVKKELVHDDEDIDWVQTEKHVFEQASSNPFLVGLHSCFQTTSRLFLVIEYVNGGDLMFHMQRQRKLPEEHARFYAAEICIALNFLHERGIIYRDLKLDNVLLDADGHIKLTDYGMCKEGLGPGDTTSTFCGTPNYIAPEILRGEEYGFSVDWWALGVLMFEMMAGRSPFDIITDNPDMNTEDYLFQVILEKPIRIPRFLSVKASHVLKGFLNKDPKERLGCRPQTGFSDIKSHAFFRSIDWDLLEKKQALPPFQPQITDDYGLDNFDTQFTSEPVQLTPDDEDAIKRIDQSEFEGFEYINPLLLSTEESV

pp60^C-SRC = pp60^C-SRC (Homo sapiens, UniProt P12931); assay: Protein kinase activity in vitro; format: biochemical
ALK5 = ALK5 (Homo sapiens, UniProt P36897, T204D); assay: biochemical
Chain of ALK5 (P36897 34-503 T204D, species assumed): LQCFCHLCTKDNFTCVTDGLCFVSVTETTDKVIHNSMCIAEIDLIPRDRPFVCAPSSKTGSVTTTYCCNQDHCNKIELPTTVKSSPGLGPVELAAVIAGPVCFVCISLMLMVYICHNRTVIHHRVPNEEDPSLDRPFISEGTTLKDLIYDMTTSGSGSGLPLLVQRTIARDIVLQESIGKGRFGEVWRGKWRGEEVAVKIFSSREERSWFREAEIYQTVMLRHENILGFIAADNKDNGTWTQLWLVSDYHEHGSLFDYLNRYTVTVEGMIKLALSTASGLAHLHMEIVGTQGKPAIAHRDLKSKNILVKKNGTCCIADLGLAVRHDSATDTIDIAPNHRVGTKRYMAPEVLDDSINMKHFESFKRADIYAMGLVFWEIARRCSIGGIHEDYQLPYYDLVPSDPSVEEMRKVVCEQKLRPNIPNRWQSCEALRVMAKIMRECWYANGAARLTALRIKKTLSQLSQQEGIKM
Experimental: The His-tagged, constitutively active ALK5 (T204D) and Smad3 full protein were expressed in insect cells using the Invitrogen BacNBlue baculovirus expression system. Expressed proteins were purified with Qiagen Ni-NTA resin column. The purified smad3 protein 200 ng was mixed with 100 μL of 0.1 M sodium bicarbonate coating buffer and coated into Flash-Plates by pipetting. Plates were covered and incubated at 4° C. for 16 hours. Then the plates were washed 3 times with 200 μL of coating buffer and allowed to block in 1% BSA in PBS at room temperature for 1 hour. The purified ALK5 protein 100 ng was mixed with 100 μL of reaction buffer containing 20 mM Tris-HCl (pH 7.4), 5 mM MgCl2, 1 mM CaCl2, 1 mM DTT, 1 μM ATP and 2 μCi ?-^32p-ATP, and 1 μL of each test compound of formula (I) prepared in 100% DMSO solution at different concentrations. The assay was then initiated with the addition of ALK5 reaction mixture into Smad3-coated Flash-Plates, followed by incubation at 30° C. for 3 hours. After incubation, the assay buffer was removed and washed 3 times with 200 μL of 10 mM sodium pyrophosphate solution. Then, the Flash-Plates were air-dried and counted on a Packard TopCount.

Cc1cccc(-c2[nH]c(Cc3cccc(C(N)=O)c3)nc2-c2ccc3nccnc3c2)n1 [Example 41, 3-((5-(6-methylpyridin-2-yl)-4-(quinoxalin-6-yl)-1(3)H-imidazol-2-yl)methyl)benzamide]
% inhibition at 10 μM (Ca^2+/Calmodulin-Dep. II): 1%
inhibition at 10 µM (Cdk1/Cyclin B): -3%
inhibition at 10 µM (Cdk2/Cyclin A): 6%
inhibition at 10 µM (Cdk5/p35): -2%
inhibition at 10 µM (CHK1): 10%
inhibition at 10 µM (CHK2): 18%
inhibition at 10 µM (EGF Receptor): 2%
inhibition at 10 µM (ERK1): 51%
inhibition at 10 µM (GSK-3β): 21%
inhibition at 10 µM (HER2 receptor): 11%
inhibition at 10 µM (IKK-1): 2%
inhibition at 10 µM (IKK-2): 1%
inhibition at 10 µM (Insulin receptor): 15%
inhibition at 10 µM (JNK1α1): 11%
inhibition at 1 µM (JNK2α2; 1 μM): 40%
inhibition at 10 µM (JNK2α2; 10 μM): 81%
inhibition at 10 µM (Lck): 17%
inhibition at 10 µM (Lyn A): 37%
% inhibition at 10 μM (Lyn A; 10 µM): 42%
inhibition at 1 µM (MEK1; 1 μM): 4%
inhibition at 10 µM (MEK1; 10 μM): 66%
inhibition at 1 µM (p38α; 1 μM): 25%
inhibition at 10 µM (p38α; 10 μM): 76%
inhibition at 10 µM (p38β): 48%
inhibition at 10 µM (p38δ): -19%
inhibition at 10 µM (p38γ): 15%
inhibition at 10 µM (p70^56k): -3%
inhibition at 10 µM (PDK1): 3%
% inhibition at 10 μM (PKA, non-selective): 27%
inhibition at 10 µM (PKBα/Akt1): 17%
inhibition at 10 µM (PKCα): -6%
inhibition at 10 µM (PKCβ1): 10%
inhibition at 10 µM (PKCβ2): -2%
inhibition at 10 µM (PKCδ): 3%
inhibition at 10 µM (PKCε): 1%
inhibition at 10 µM (PKCγ): 3%
inhibition at 10 µM (PKCη): -6%
inhibition at 1 µM (PKCμ; 1 μM): 31%
inhibition at 10 µM (PKCμ; 10 μM): 64%
inhibition at 10 µM (PKCζ): -9%
inhibition at 10 µM (pp60^C-SRC): -3%
IC50 (ALK5): 5.3 nM
